According to patent US12509444B2, “Compounds and methods for CD73 modulation and indications therefor” (Plexxikon Inc., priority 2019, dated 2025):

Legend:
[1] = biological target: T1, Human CD73 (amino acid residues 27-549) (Homo sapiens, UniProt P21589); assay: CD73 enzymatic assay (luciferase-based indirect assay, CellTiter-Glo); format: biochemical; conditions: 0.4 nM CD73, 150 μM AMP, 1 hour at room temperature
T1 construct: Human CD73 (amino acid residues 27-549); His tag (N); made in house; host or cells: E. coli
T1 sequence (P21589 27-549): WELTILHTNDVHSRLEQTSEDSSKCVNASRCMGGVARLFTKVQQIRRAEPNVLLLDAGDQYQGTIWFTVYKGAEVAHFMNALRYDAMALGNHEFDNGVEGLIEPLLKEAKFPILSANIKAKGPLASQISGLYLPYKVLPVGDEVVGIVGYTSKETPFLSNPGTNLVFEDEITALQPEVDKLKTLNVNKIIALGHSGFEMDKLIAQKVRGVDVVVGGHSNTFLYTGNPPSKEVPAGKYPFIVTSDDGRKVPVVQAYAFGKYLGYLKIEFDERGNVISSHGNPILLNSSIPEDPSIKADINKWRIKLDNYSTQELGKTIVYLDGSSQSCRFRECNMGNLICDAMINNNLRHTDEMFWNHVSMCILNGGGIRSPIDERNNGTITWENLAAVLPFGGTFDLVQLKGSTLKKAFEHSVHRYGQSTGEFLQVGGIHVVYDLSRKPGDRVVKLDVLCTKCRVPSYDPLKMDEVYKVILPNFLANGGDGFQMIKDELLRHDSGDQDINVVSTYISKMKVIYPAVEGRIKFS
Summary of the method: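 His-tagged human CD73 (27-549) from E. coli, 0.4 nM, with 150 μM AMP in 50 mM HEPES pH 7.4, 0.01% Tween 20; 1 h at room temperature. AMP remaining read by CellTiter-Glo 2.0 luminescence with 1 μM final ATP after 30 min. IC50 from nonlinear regression of % inhibition.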

human CD73 = biological target: T2, human CD73 (Homo sapiens, UniProt P21589); assay: Inhibitor activity against CD73 in cell based assay (CD73 expressing CHO-K1 cells); conditions: CHO-K1 cells expressing human CD73, 150 μM AMP, 4 hours of incubation; read-out: CHO-K1 CELL VARIANT: CD73 IC50
T2 construct: expressed in transfected cells
T2 sequence (P21589 27-549): T1 sequence (P21589 27-549)
Summary of the method: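 Stably transfected CHO-K1 cells expressing human CD73 (1×10^4/well) incubated 4 h with compound (8-point 1:3 titration, top 10 μM final, 0.2% DMSO) and 150 μM AMP. Residual AMP in supernatant measured by CellTiter-Glo luminescence with 1 μM ATP after 30 min at room temperature; IC50 by nonlinear regression of percent inhibition vs high/low controls.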

IC50 [1] [µM] | IC50 (human CD73) [µM] | SMILES
0.001 to 10 | 0.001 to 10 | O=C(Nc1ccc(F)cc1)NC1CC2(C1)CC(NC(=O)O[C@@H]1CCN(c3cn[nH]c(=O)c3Cl)C1)C2 (stereo partly drawn) [P-0214, (R)-1-(5-chloro-6-oxo-1,6-dihydropyridazin-4-yl)pyrrolidin-3-yl (6-(3-(4-fluorophenyl)ureido)spiro[3.3]heptan-2-yl)carbamate]
0.001 to 10 | 0.001 to 10 | CCC(CC)NC(=O)O[C@@H]1CCN(c2cn[nH]c(=O)c2Cl)C1 [P-0215, (R)-1-(5-chloro-6-oxo-1,6-dihydropyridazin-4-yl)pyrrolidin-3-yl pentan-3-ylcarbamate]
0.001 to 10 | 0.001 to 10 | Cn1ncc(N2CC[C@@H](OC(=O)N[C@H]3CC[C@H](NS(=O)(=O)c4ccc(F)cc4)CC3)C2)c(Cl)c1=O [P-0216, (R)-1-(5-chloro-1-methyl-6-oxo-1,6-dihydropyridazin-4-yl)pyrrolidin-3-yl ((1r,4R)-4-((4-fluorophenyl)sulfonamido)cyclohexyl)carbamate]
0.001 to 10 | 0.001 to 10 | Cn1ncc(N2CC[C@@H](OC(=O)N[C@H]3CC[C@H](NC(=O)c4ccccc4)CC3)C2)c(Cl)c1=O [P-0217, (R)-1-(5-chloro-1-methyl-6-oxo-1,6-dihydropyridazin-4-yl)pyrrolidin-3-yl ((1r,4R)-4-benzamidocyclohexyl) carbamate]
0.001 to 10 | 0.001 to 10 | Cn1ncc(N2CC[C@@H](OC(=O)N[C@H]3CC[C@H](NS(=O)(=O)NC4CCCC4)CC3)C2)c(Cl)c1=O [P-0218, (R)-1-(5-chloro-1-methyl-6-oxo-1,6-dihydropyridazin-4-yl)pyrrolidin-3-yl ((1r,4R)-4-((N-cyclopentylsulfamoyl)amino)cyclohexyl)carbamate]
10 to 100 | 10 to 100 | CC(C)(C)c1nnc(NC(=O)O[C@@H]2CCN(c3cn[nH]c(=O)c3Cl)C2)s1 [P-0219, (R)-1-(5-chloro-6-oxo-1,6-dihydropyridazin-4-yl)pyrrolidin-3-yl (5-(tert-butyl)-1,3,4-thiadiazol-2-yl)carbamate]
0.001 to 10 | 0.001 to 10 | Cc1cc(NC(=O)O[C@@H]2CCN(c3cn[nH]c(=O)c3Cl)C2)no1 [P-0220, (R)-1-(5-chloro-6-oxo-1,6-dihydropyridazin-4-yl)pyrrolidin-3-yl (5-methylisoxazol-3-yl)carbamate]
10 to 100 | 10 to 100 | Cc1nc(NC(=O)O[C@@H]2CCN(c3cn[nH]c(=O)c3Cl)C2)sc1C [P-0221, (R)-1-(5-chloro-6-oxo-1,6-dihydropyridazin-4-yl)pyrrolidin-3-yl (4,5-dimethylthiazol-2-yl)carbamate]
0.001 to 10 | 10 to 100 | Cn1cc(NC(=O)O[C@@H]2CCN(c3cn[nH]c(=O)c3Cl)C2)cn1 [P-0222, (R)-1-(5-chloro-6-oxo-1,6-dihydropyridazin-4-yl)pyrrolidin-3-yl (1-methyl-1H-pyrazol-4-yl)carbamate]
10 to 100 | 10 to 100 | O=C(NCc1cc(C2CC2)[nH]n1)O[C@@H]1CCN(c2cn[nH]c(=O)c2Cl)C1 [P-0223, (R)-1-(5-chloro-6-oxo-1,6-dihydropyridazin-4-yl)pyrrolidin-3-yl ((5-cyclopropyl-1H-pyrazol-3-yl)methyl)carbamate]
0.001 to 10 | 10 to 100 | O=C(Nc1cnn2cccnc12)O[C@@H]1CCN(c2cn[nH]c(=O)c2Cl)C1 [P-0224, (R)-1-(5-chloro-6-oxo-1,6-dihydropyridazin-4-yl)pyrrolidin-3-yl pyrazolo[1,5-a]pyrimidin-3-ylcarbamate]
0.001 to 10 | 10 to 100 | O=C(Nc1ncco1)O[C@@H]1CCN(c2cn[nH]c(=O)c2Cl)C1 [P-0225, (R)-1-(5-chloro-6-oxo-1,6-dihydropyridazin-4-yl)pyrrolidin-3-yl oxazol-2-ylcarbamate]
0.001 to 10 | 0.001 to 10 | CCn1cc(S(=O)(=O)N[C@H]2CC[C@H](NC(=O)O[C@@H]3CCN(c4cnn(C)c(=O)c4Cl)C3)CC2)cn1 [P-0226, (R)-1-(5-chloro-1-methyl-6-oxo-1,6-dihydropyridazin-4-yl)pyrrolidin-3-yl ((1r,4R)-4-((1-ethyl-1H-pyrazole)-4-sulfonamido)cyclohexyl) carbamate]
0.001 to 10 | 0.001 to 10 | Cn1ncc(N2CC[C@@H](OC(=O)N[C@H]3CC[C@H](NS(=O)(=O)C4CC4)CC3)C2)c(Cl)c1=O [P-0227, (R)-1-(5-chloro-1-methyl-6-oxo-1,6-dihydropyridazin-4-yl)pyrrolidin-3-yl ((1r,4R)-4-(cyclopropanesulfonamido)cyclohexyl)carbamate]
0.001 to 10 | 0.001 to 10 | Cn1ncc(N2CC[C@@H](OC(=O)N[C@H]3CC[C@H](NS(=O)(=O)C4CCCC4)CC3)C2)c(Cl)c1=O [P-0228, (R)-1-(5-chloro-1-methyl-6-oxo-1,6-dihydropyridazin-4-yl)pyrrolidin-3-yl ((1r,4R)-4-(cyclopentanesulfonamido)cyclohexyl)carbamate]
0.001 to 10 | 0.001 to 10 | C[C@]1(O)CC[C@H](NC(=O)O[C@@H]2CCN(c3cn[nH]c(=O)c3Cl)C2)CC1 [P-0229, (R)-1-(5-chloro-6-oxo-1,6-dihydropyridazin-4-yl)pyrrolidin-3-yl ((1r,4R)-4-hydroxy-4-methylcyclohexyl)carbamate]
0.001 to 10 | 0.001 to 10 | CO[C@H]1CC[C@H](NC(=O)O[C@@H]2CCN(c3cn[nH]c(=O)c3Cl)C2)CC1 [P-0230, (R)-1-(5-chloro-6-oxo-1,6-dihydropyridazin-4-yl)pyrrolidin-3-yl ((1r,4R)-4-methoxycyclohexyl)carbamate]
0.001 to 10 | 0.001 to 10 | CO[C@H]1CC[C@@H](NC(=O)O[C@@H]2CCN(c3cn[nH]c(=O)c3Cl)C2)CC1 [P-0231, (R)-1-(5-chloro-6-oxo-1,6-dihydropyridazin-4-yl)pyrrolidin-3-yl ((1s,4S)-4-methoxycyclohexyl)carbamate]
0.001 to 10 | 0.001 to 10 | O=C(NCC1CCS(=O)(=O)CC1)O[C@@H]1CCN(c2cn[nH]c(=O)c2Cl)C1 [P-0232, (R)-1-(5-chloro-6-oxo-1,6-dihydropyridazin-4-yl)pyrrolidin-3-yl ((1,1-dioxidotetrahydro-2H-thiopyran-4-yl)methyl)carbamate]
0.001 to 10 | 0.001 to 10 | O=C(NCC1CCCCC1)O[C@@H]1CCN(c2cn[nH]c(=O)c2Cl)C1 [P-0233, (R)-1-(5-chloro-6-oxo-1,6-dihydropyridazin-4-yl)pyrrolidin-3-yl (cyclohexylmethyl)carbamate]
0.001 to 10 | 0.001 to 10 | O=C(NCCC1CCCC1)O[C@@H]1CCN(c2cn[nH]c(=O)c2Cl)C1 [P-0234, (R)-1-(5-chloro-6-oxo-1,6-dihydropyridazin-4-yl)pyrrolidin-3-yl (2-cyclopentylethyl)carbamate]
0.001 to 10 | 0.001 to 10 | O=C(NCCCO)O[C@@H]1CCN(c2cn[nH]c(=O)c2Cl)C1 [P-0235, (R)-1-(5-chloro-6-oxo-1,6-dihydropyridazin-4-yl)pyrrolidin-3-yl (3-hydroxypropyl)carbamate]
0.001 to 10 | 0.001 to 10 | O=C(NCC1CCOCC1)O[C@@H]1CCN(c2cn[nH]c(=O)c2Cl)C1 [P-0236, (R)-1-(5-chloro-6-oxo-1,6-dihydropyridazin-4-yl)pyrrolidin-3-yl ((tetrahydro-2H-pyran-4-yl)methyl)carbamate]
0.001 to 10 | 0.001 to 10 | O=C(N[C@@H]1CC[C@H](NS(=O)(=O)c2ccccc2F)C1)O[C@@H]1CCN(c2cn[nH]c(=O)c2Cl)C1 [P-0237, (R)-1-(5-chloro-6-oxo-1,6-dihydropyridazin-4-yl)pyrrolidin-3-yl ((1R,3S)-3-((2-fluorophenyl)sulfonamido)cyclopentyl)carbamate]
0.001 to 10 | 0.001 to 10 | Cn1ncc(N2CC[C@@H](OC(=O)N[C@H]3CC[C@H](NS(=O)(=O)c4c(F)cccc4F)CC3)C2)c(Cl)c1=O [P-0238, (R)-1-(5-chloro-1-methyl-6-oxo-1,6-dihydropyridazin-4-yl)pyrrolidin-3-yl ((1r,4R)-4-((2,6-difluorophenyl)sulfonamido)cyclohexyl)carbamate]
0.001 to 10 | 0.001 to 10 | Cn1ncc(N2CC[C@@H](OC(=O)N[C@H]3CC[C@H](NS(=O)(=O)c4ccccc4Br)CC3)C2)c(Cl)c1=O [P-0239, (R)-1-(5-chloro-1-methyl-6-oxo-1,6-dihydropyridazin-4-yl)pyrrolidin-3-yl ((1r,4R)-4-((2-bromophenyl)sulfonamido)cyclohexyl)carbamate]
